# In ChEMBL document CHEMBL1126412, “RP 70676: A potent systematically available inhibitor of acyl-CoA:cholesterol O-acyl transferase (ACAT)” (Bioorg Med Chem Lett, 1992):
# pIC50: −log10 of the molar value.
# What was measured:
# [1] = biological target: T1, Sterol O-acyltransferase 1 (Cricetulus griseus, UniProt Q60457); assay: Concentration required for the inhibition of Cholesterol O-acyl transferase from hamster liver
# T1 sequence (Q60457 whole entry): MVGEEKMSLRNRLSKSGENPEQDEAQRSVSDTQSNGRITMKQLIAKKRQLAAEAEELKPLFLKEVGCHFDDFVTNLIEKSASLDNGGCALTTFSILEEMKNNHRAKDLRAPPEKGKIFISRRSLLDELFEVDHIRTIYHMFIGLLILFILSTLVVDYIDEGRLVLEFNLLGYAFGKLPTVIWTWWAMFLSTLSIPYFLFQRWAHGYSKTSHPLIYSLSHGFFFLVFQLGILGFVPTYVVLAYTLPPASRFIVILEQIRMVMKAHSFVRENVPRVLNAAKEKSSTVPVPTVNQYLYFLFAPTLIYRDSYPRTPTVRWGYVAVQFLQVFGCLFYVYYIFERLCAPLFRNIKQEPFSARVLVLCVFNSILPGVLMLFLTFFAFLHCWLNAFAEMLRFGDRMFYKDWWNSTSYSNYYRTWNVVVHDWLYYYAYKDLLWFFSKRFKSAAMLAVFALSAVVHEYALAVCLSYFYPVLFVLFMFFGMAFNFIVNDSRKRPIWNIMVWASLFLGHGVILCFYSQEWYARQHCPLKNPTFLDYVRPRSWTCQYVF
# Oryctolagus cuniculus [2] = organism: Oryctolagus cuniculus; assay: Evaluated for the reduction of plasma cholesterol level in NZW rabbits with 0.25% cholesterol in diet; type: functional
# Oryctolagus cuniculus [3] = organism: Oryctolagus cuniculus; assay: Evaluated for the reduction of plasma cholesterol level in NZW rabbits with 5% cholesterol in diet; AUC; mM.days; type: functional
# Oryctolagus cuniculus [4] = organism: Oryctolagus cuniculus; assay: Percent change of cholesterol ester level in thoracic aorta of NZW rabbits form control; type: functional
# Oryctolagus cuniculus [5] = organism: Oryctolagus cuniculus; assay: Percent change of cholesterol ester level in thoracic aorta of NZW rabbits from control; type: functional
# Oryctolagus cuniculus [6] = organism: Oryctolagus cuniculus; assay: Percent change of cholesterol esters level in abdominal aorta of NZW rabbits form control; type: functional
# Oryctolagus cuniculus [7] = organism: Oryctolagus cuniculus; assay: Percent change of cholesterol esters level in abdominal aorta of NZW rabbits from control; type: functional
# Oryctolagus cuniculus [8] = organism: Oryctolagus cuniculus; assay: Percent change of free cholesterol level in abdominal aorta of NZW rabbits form control; type: functional
# Oryctolagus cuniculus [9] = organism: Oryctolagus cuniculus; assay: Percent change of free cholesterol level in abdominal aorta of NZW rabbits from control; type: functional
# Oryctolagus cuniculus [10] = organism: Oryctolagus cuniculus; assay: Percent change of free cholesterol levels in thoracic aorta of NZW rabbits form control; type: functional
# Oryctolagus cuniculus [11] = organism: Oryctolagus cuniculus; assay: Percent change of free cholesterol levels in thoracic aorta of NZW rabbits from control; type: functional
# Oryctolagus cuniculus [12] = organism: Oryctolagus cuniculus; assay: Percent change of plasma cholesterol level in NZW rabbits form control; type: functional
# Oryctolagus cuniculus [13] = organism: Oryctolagus cuniculus; assay: Percent change of plasma cholesterol level in NZW rabbits from control; type: functional
# [14] = biological target: T2, Sterol O-acyltransferase 1 (Rattus norvegicus, UniProt O70536); assay: Concentration required for the inhibition of cholesterol O-acyl transferase (ACAT) from rat liver
# T2 sequence (O70536 whole entry): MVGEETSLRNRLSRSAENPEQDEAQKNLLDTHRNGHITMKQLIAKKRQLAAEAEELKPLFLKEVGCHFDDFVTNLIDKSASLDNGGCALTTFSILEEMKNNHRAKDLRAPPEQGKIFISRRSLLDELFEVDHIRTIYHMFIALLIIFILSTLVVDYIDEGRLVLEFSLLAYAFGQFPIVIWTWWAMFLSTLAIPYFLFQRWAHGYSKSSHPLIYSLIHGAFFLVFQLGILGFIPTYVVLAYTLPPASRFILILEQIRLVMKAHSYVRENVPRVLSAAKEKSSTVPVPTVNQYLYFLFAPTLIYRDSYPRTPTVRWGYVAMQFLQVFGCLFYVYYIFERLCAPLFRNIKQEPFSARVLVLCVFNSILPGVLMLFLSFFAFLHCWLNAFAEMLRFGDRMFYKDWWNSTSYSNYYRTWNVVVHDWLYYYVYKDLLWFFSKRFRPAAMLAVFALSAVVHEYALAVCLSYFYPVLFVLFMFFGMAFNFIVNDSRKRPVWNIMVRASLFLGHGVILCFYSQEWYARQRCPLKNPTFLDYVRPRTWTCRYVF
# [15] = biological target: T3, Acyl-CoA:cholesterol acyltransferase (Oryctolagus cuniculus, UniProt Q95214); assay: Concentration required for the inhibition of cholesterol O-acyl transferase (ACAT) from cholesterol fed rabbit liver
# T3 sequence (Q95214 whole entry): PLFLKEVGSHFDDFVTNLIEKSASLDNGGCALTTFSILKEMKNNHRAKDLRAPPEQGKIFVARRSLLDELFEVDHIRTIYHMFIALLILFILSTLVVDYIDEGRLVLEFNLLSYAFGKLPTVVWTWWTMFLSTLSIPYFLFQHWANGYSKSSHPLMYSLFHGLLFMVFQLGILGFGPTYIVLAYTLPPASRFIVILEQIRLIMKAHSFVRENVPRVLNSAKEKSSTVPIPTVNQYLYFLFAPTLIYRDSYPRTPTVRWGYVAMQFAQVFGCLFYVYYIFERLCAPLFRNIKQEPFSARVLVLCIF
SMILES,pIC50 [14],pIC50 [15],other results
Cc1cc(C)n(CCCCCSc2nc(-c3ccccc3)c(-c3ccccc3)[nH]2)n1,,,pIC50 [1]: 7.92; AUC (Oryctolagus cuniculus [2]): 776 mM·days; AUC (Oryctolagus cuniculus [3]): 1440 mM·days; Change (Oryctolagus cuniculus [4]): <-40%; Change (Oryctolagus cuniculus [5]): <-42%; Change (Oryctolagus cuniculus [6]): <-46%; Change (Oryctolagus cuniculus [7]): <-40%; Change (Oryctolagus cuniculus [8]): <-36%; Change (Oryctolagus cuniculus [9]): <-27%; Change (Oryctolagus cuniculus [10]): <-44%; Change (Oryctolagus cuniculus [11]): <-36%; Change (Oryctolagus cuniculus [12]): <-46%; Change (Oryctolagus cuniculus [13]): <-40%
c1ccc(-c2nc(SCCCn3cccn3)[nH]c2-c2ccccc2)cc1,7.30,< 6.00,
CCCCCCCN(CCCCCSc1nc(-c2ccccc2)c(-c2ccccc2)[nH]1)C(=O)Nc1ccc(F)cc1F [LECIMIBIDE],8.00,,
c1ccc(-c2nc(SCCCCCSc3ncc[nH]3)[nH]c2-c2ccccc2)cc1,7.36,6.06,
Cn1ccnc1S(=O)(=O)CCCSc1nc(-c2ccccc2)c(-c2ccccc2)[nH]1,7.96,5.10,
Cn1ccnc1SCCCCSc1nc(-c2ccccc2)c(-c2ccccc2)[nH]1,7.42,6.74,
c1ccc(-c2nc(SCCCCCCn3cccn3)[nH]c2-c2ccccc2)cc1,7.32,6.23,
c1ccc(-c2nc(SCCCCCn3cccn3)[nH]c2-c2ccccc2)cc1,7.62,6.55,
Cn1ccnc1SCCCSc1nc(-c2ccccc2)c(-c2ccccc2)[nH]1,7.85,6.01,
